For experiment [1], the system named is HepG2 cells originating from human liver cancer. The experiment can be described thus: EPO production in HepG2 cells (EPO ELISA of culture supernatant, 4% oxygen, 48 hrs). Conditions: test compound 3 μM, oxygen 4%, non-stimulated state = 100%, read-out: EPO production amount, % of control (3 μM). The class given is cell-based. A digest of the protocol: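 HepG2 cells in phenol red-free DMEM with 10% fetal serum treated with compound at final 3 μM or 10 μM, 48 h at 4% oxygen. Supernatant EPO by ELISA, expressed as % of untreated control.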
For orientation: An ELISA detects its analyte on a solid surface through an enzyme-linked reagent.

Experiment [2] concerns K562 cells, human proerythroblast cells. The experiment can be described thus: Hemoglobin production in K562 cells (fluorescence of the porphyrin ring). The settings on record: 144 h, test compound 6 μM, 3+3 days, non-stimulated state = 100%, read-out: production amount of hemoglobin, % of control (6 μM). In kind it is cell-based. Put shortly: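 K562 cells at 1×10^5 cells/mL in RPMI-1640 with 10% FBS, exposed to compound 3 days, medium exchanged, then 3 more days at 37 °C, 5% CO2. Hemoglobin from 3×10^5 cells measured as porphyrin fluorescence after boiling 30 min in 2 M oxalic acid; expressed as % of untreated control.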

In the case of `CC(=O)N1c2ccc(F)cc2C(Nc2ccc(CC(N)=O)cc2)CC1C` (stereo not shown) [Compound 124, 1-acetyl-4-[(4-carbamoylmethylphenyl)amino]-6-fluoro-2-methyl-1,2,3,4-tetrahydroquinoline], the activity at 3 µM in experiment [1] was 147%. In addition, in experiment [2], the activity at 6 µM stood at 119%.

`CC(=O)N1c2ccc(F)cc2C(Nc2ccc(CC(=O)N(C)C)cc2)CC1C` (stereo not shown) [Compound 125, 1-acetyl-4-[4-(N,N-dimethylaminocarbonylmethyl)phenylamino]-6-fluoro-2-methyl-1,2,3,4-tetrahydroquinoline]: the activity at 3 µM in experiment [1] turned out to be 148%. Besides, the activity at 6 µM in experiment [2] was 118%.

Source of the values: US20130172345A1, “1-ACYL-4-(PHENOXY, BENZYLOXY, OR PHENYLAMINO)-1,2,3,4-TETRAHYDROQUINOLINE DERIVATIVES” (KOWA COMPANY, LTD., priority 2007, published 2013).
